# How the values were obtained:
# barnyardgrass [1] = assay: Test A pre-/postemergence herbicide test; type: in vivo, Echinochloa crus-galli
# Summary of the method: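 Both application timings used compounds in a non-phytotoxic solvent plus surfactant. Pre-emergence: soil sprayed directly after seeding into loam/sand. Post-emergence: foliage of 2–10 cm seedlings (1–2 leaves) sprayed. Injury rated ~10 days later, 0–100.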
# rice = assay: Test B flooded paddy test; type: in vivo, Oryza sativa; details: Flood, scale of 0 to 100 where 0 is no effect and 100 is complete control
# Summary of the method: (§1)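 Scoring: visual, compared with untreated controls, 0 = no effect through 100 = complete control, taken 13 to 15 days after treatment in the greenhouse. Compounds had been added to paddy water over soil flooded 3 cm deep at the plants' 2-leaf stage.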
# barnyardgrass [2] = assay: Test B flooded paddy test; type: in vivo, Echinochloa crus-galli; details: Flood, scale of 0 to 100 where 0 is no effect and 100 is complete control
# Summary of the method: as §1
# blackgrass = assay: Test C pre-/postemergence herbicide test; type: in vivo, Alopecurus myosuroides
# Summary of the method: (§2)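 Herbicidal effect was judged by eye 13 to 15 days after treatment in the greenhouse, using a 0–100 scale against controls. Chemicals in a non-phytotoxic solvent with surfactant were sprayed onto planted loam/sand soil or onto plants 2 to 18 cm tall in a peat-based growing medium.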
# galium = assay: Test C pre-/postemergence herbicide test; type: in vivo, Galium aparine
# Summary of the method: as §2
# corn = assay: Test C pre-/postemergence herbicide test; type: in vivo, Zea mays
# Summary of the method: as §2
# crabgrass, large = assay: Test C pre-/postemergence herbicide test; type: in vivo, Digitaria sanguinalis
# Summary of the method: as §2
# foxtail, giant = assay: Test C pre-/postemergence herbicide test; type: in vivo, Setaria faberii
# Summary of the method: as §2
# lambsquarters = assay: Test C pre-/postemergence herbicide test; type: in vivo, Chenopodium album
# Summary of the method: as §2
# pigweed = assay: Test C pre-/postemergence herbicide test; type: in vivo, Amaranthus retroflexus
# Summary of the method: as §2
# velvetleaf = assay: Test C pre-/postemergence herbicide test; type: in vivo, Abutilon theophrasti
# Summary of the method: as §2
# [3] = Postemergence, 500 g ai/ha, 0 to 100 scale (0 no effect, 100 complete control)
# [4] = Preemergence, 31 g ai/ha, scale 0 to 100, 0 is no effect and 100 is complete control
# [5] = Preemergence, 62 g ai/ha, scale 0 to 100
# [6] = Preemergence, 125 g ai/ha, scale 0 to 100 (0 no effect, 100 complete control)
# [7] = Preemergence, 62 g ai/ha, scale 0 to 100 (0 no effect, 100 complete control)
# [8] = Preemergence, 125 g ai/ha, scale 0 to 100
# [9] = Postemergence, 31 g ai/ha, scale 0 to 100 (0 no effect, 100 complete control)
# [10] = Postemergence, 62 g ai/ha, scale 0 (no effect) to 100 (complete control)
# [11] = Postemergence, 125 g ai/ha, scale 0 to 100 (0 no effect, 100 complete control)
# [12] = Postemergence, 250 g ai/ha, scale 0 to 100 (0 no effect, 100 complete control)
compound,measurement,setting,value
O=C1NCC(c2ccc(F)c(C(F)(F)F)c2)C1C(=O)Nc1cccc(F)c1F (racemic) [Compound 77],"Plant response rating, Barnyardgrass","barnyardgrass [1]; Postemergence, 125 g ai/ha, 0 to 100 scale, 0 no effect, 100 complete control",70
same,"Plant response rating, Barnyardgrass",barnyardgrass [1]; [3],80
same,Barnyardgrass plant response rating,"barnyardgrass [1]; Preemergence, 125 g ai/ha, visual rating on 0 to 100 scale (0 no effect, 100 complete control)",80
same,"Plant response rating, Barnyardgrass","barnyardgrass [1]; preemergence, 500 g ai/ha, 0 to 100 scale (0 no effect, 100 complete control)",90
same,"Plant response rating, Rice",rice; 250 g ai/ha,10
same,"Plant response rating, Barnyardgrass",barnyardgrass [2]; 250 g ai/ha,20
same,Blackgrass plant response rating,blackgrass; [4],85
same,"Plant response rating, Blackgrass",blackgrass; [5],85
same,"Plant response rating, Blackgrass",blackgrass; [6],85
same,"Plant response rating (scale of 0 to 100), Blackgrass","blackgrass; Preemergence, 250 g ai/ha",95
same,"Plant response rating, Galium",galium; [5],5
same,"Plant response rating, Galium",galium; [6],80
same,"Plant response rating (scale of 0 to 100), Galium","galium; Preemergence, 250 g ai/ha",90
same,Corn plant response rating,corn; [4],0
same,"Plant response rating, Corn",corn; [5],20
same,"Plant response rating, Corn",corn; [6],55
same,"Plant response rating (scale of 0 to 100), Corn","corn; Preemergence, 250 g ai/ha",70
same,"Crabgrass, Large plant response rating","crabgrass, large; [4]",95
same,"Plant response rating, Crabgrass, Large","crabgrass, large; [5]",95
same,"Plant response rating, Crabgrass, Large","crabgrass, large; [6]",98
same,"Plant response rating (scale of 0 to 100), Crabgrass, Large","crabgrass, large; Preemergence, 250 g ai/ha",98
same,"Foxtail, Giant plant response rating","foxtail, giant; [4]",90
same,"Plant response rating, Foxtail, Giant","foxtail, giant; [5]",90
same,"Plant response rating, Foxtail, Giant","foxtail, giant; [6]",95
same,"Plant response rating (scale of 0 to 100), Foxtail, Giant","foxtail, giant; Preemergence, 250 g ai/ha",100
same,Lambsquarters plant response rating,lambsquarters; [4],75
same,"Plant response rating, Lambsquarters",lambsquarters; [5],85
same,"Plant response rating, Lambsquarters",lambsquarters; [6],85
same,"Plant response rating (scale of 0 to 100), Lambsquarters","lambsquarters; Preemergence, 250 g ai/ha",98
same,Pigweed plant response rating,pigweed; [4],0
same,"Plant response rating, Pigweed",pigweed; [5],60
same,"Plant response rating, Pigweed",pigweed; [6],60
same,"Plant response rating (scale of 0 to 100), Pigweed","pigweed; Preemergence, 250 g ai/ha",85
same,Velvetleaf plant response rating,velvetleaf; [4],0
same,"Plant response rating, Velvetleaf",velvetleaf; [5],25
same,"Plant response rating, Velvetleaf",velvetleaf; [6],30
same,"Plant response rating (scale of 0 to 100), Velvetleaf","velvetleaf; Preemergence, 250 g ai/ha",40
CC(C)c1cccc(C2CNC(=O)C2C(=O)Nc2ccccc2F)c1 (stereo not shown) [Compound 318],"Plant response rating, Barnyardgrass","barnyardgrass [1]; Postemergence, 125 g ai/ha, visual rating on 0 to 100 scale (0 no effect, 100 complete control), approx. 10 days",90
same,"Plant response rating, Barnyardgrass",barnyardgrass [1]; [3],90
same,"Plant response rating, Barnyardgrass","barnyardgrass [1]; Preemergence, 125 g ai/ha, 0 to 100 scale where 0 is no effect and 100 is complete control",90
same,Barnyardgrass plant response rating,"barnyardgrass [1]; Preemergence, 500 g ai/ha, visual rating on 0 to 100 scale (0 no effect, 100 complete control)",90
same,"Plant response rating, Rice",rice; 500 g ai/ha,15
same,"Plant response rating, Barnyardgrass",barnyardgrass [2]; 500 g ai/ha,75
same,Blackgrass plant response rating,blackgrass; [4],0
same,Blackgrass plant response rating,blackgrass; [7],0
same,"Plant response rating, Blackgrass",blackgrass; [8],30
same,"Plant response rating (scale of 0 to 100), Blackgrass","blackgrass; Preemergence, 250 g ai/ha",45
same,Galium plant response rating,galium; [4],0
same,Galium plant response rating,galium; [7],0
same,"Plant response rating, Galium",galium; [8],40
same,"Plant response rating (scale of 0 to 100), Galium","galium; Preemergence, 250 g ai/ha",100
same,Corn plant response rating,corn; [4],0
same,Corn plant response rating,corn; [7],0
same,"Plant response rating, Corn",corn; [8],10
same,"Plant response rating (scale of 0 to 100), Corn","corn; Preemergence, 250 g ai/ha",60
same,"Crabgrass, Large plant response rating","crabgrass, large; [4]",95
same,"Crabgrass, Large plant response rating","crabgrass, large; [7]",98
same,"Plant response rating, Crabgrass, Large","crabgrass, large; [8]",98
same,"Plant response rating (scale of 0 to 100), Crabgrass, Large","crabgrass, large; Preemergence, 250 g ai/ha",100
same,"Foxtail, Giant plant response rating","foxtail, giant; [4]",10
same,"Foxtail, Giant plant response rating","foxtail, giant; [7]",70
same,"Plant response rating, Foxtail, Giant","foxtail, giant; [8]",75
same,"Plant response rating (scale of 0 to 100), Foxtail, Giant","foxtail, giant; Preemergence, 250 g ai/ha",90
same,Lambsquarters plant response rating,lambsquarters; [4],10
same,Lambsquarters plant response rating,lambsquarters; [7],55
same,"Plant response rating, Lambsquarters",lambsquarters; [8],50
same,"Plant response rating (scale of 0 to 100), Lambsquarters","lambsquarters; Preemergence, 250 g ai/ha",60
same,Pigweed plant response rating,pigweed; [4],0
same,Pigweed plant response rating,pigweed; [7],20
same,"Plant response rating, Pigweed",pigweed; [8],20
same,Velvetleaf plant response rating,velvetleaf; [7],10
same,"Plant response rating, Velvetleaf",velvetleaf; [8],25
O=C1NCC(c2ccc(C(F)(F)F)cc2)C1C(=O)Nc1cccc(F)c1F (racemic) [Compound 202],"Plant response rating, Barnyardgrass","barnyardgrass [1]; 125 g ai/ha, visual rating, 0 to 100 scale, 0 no effect, 100 complete control, approximately 10 days, preemergence",90
same,"Plant response rating, Barnyardgrass","barnyardgrass [1]; Postemergence, 125 g ai/ha, 0 to 100 scale, 0 is no effect, 100 is complete control",80
same,"Barnyardgrass plant response rating (0 to 100 scale, 0 is no effect, 100 is complete control)","barnyardgrass [1]; Postemergence, 500 g ai/ha",90
same,"Plant response rating, Barnyardgrass","barnyardgrass [1]; preemergence, 500 g ai/ha, 0 to 100 scale, 0 is no effect and 100 is complete control",90
same,"Plant response rating, Rice",rice; 500 g ai/ha,15
same,"Plant response rating, Barnyardgrass",barnyardgrass [2]; 500 g ai/ha,65
same,"Plant response rating, Blackgrass",blackgrass; [9],0
same,"Plant response rating, Blackgrass",blackgrass; [10],0
same,"Plant response rating, Blackgrass",blackgrass; [11],5
same,"Plant response rating, Blackgrass",blackgrass; [12],10
same,Blackgrass plant response rating,blackgrass; [4],70
same,"Plant response rating, Blackgrass",blackgrass; [5],80
same,"Plant response rating, Blackgrass",blackgrass; [6],90
same,"Plant response rating (scale of 0 to 100), Blackgrass","blackgrass; Preemergence, 250 g ai/ha",90
same,"Plant response rating, Galium",galium; [9],80
same,"Plant response rating, Galium",galium; [10],80
same,"Plant response rating, Galium",galium; [11],80
same,"Plant response rating, Galium",galium; [12],80
same,Galium plant response rating,galium; [4],85
same,Galium plant response rating,galium; [7],90
same,"Plant response rating, Galium",galium; [6],90
same,"Plant response rating (scale of 0 to 100), Galium","galium; Preemergence, 250 g ai/ha",90
same,"Plant response rating, Corn",corn; [9],0
same,"Plant response rating, Corn",corn; [10],0
same,"Plant response rating, Corn",corn; [11],10
same,"Plant response rating, Corn",corn; [12],35
same,Corn plant response rating,corn; [4],20
same,Corn plant response rating,corn; [7],85
same,"Plant response rating, Corn",corn; [6],75
same,"Plant response rating (scale of 0 to 100), Corn","corn; Preemergence, 250 g ai/ha",85
same,"Plant response rating, Crabgrass, Large","crabgrass, large; [9]",30
same,"Plant response rating, Crabgrass, Large","crabgrass, large; [10]",50
same,"Plant response rating, Crabgrass, Large","crabgrass, large; [11]",60
same,"Plant response rating, Crabgrass, Large","crabgrass, large; [12]",75
same,"Crabgrass, Large plant response rating","crabgrass, large; [4]",90
same,"Crabgrass, Large plant response rating","crabgrass, large; [7]",95
same,"Plant response rating, Crabgrass, Large","crabgrass, large; [6]",98
same,"Plant response rating (scale of 0 to 100), Crabgrass, Large","crabgrass, large; Preemergence, 250 g ai/ha",98
same,"Plant response rating, Foxtail, Giant","foxtail, giant; [9]",5
same,"Plant response rating, Foxtail, Giant","foxtail, giant; [10]",25
same,"Plant response rating, Foxtail, Giant","foxtail, giant; [11]",70
same,"Plant response rating, Foxtail, Giant","foxtail, giant; [12]",85
same,"Foxtail, Giant plant response rating","foxtail, giant; [4]",90
same,"Foxtail, Giant plant response rating","foxtail, giant; [7]",90
same,"Plant response rating, Foxtail, Giant","foxtail, giant; [6]",95
same,"Plant response rating (scale of 0 to 100), Foxtail, Giant","foxtail, giant; Preemergence, 250 g ai/ha",98
same,"Plant response rating, Lambsquarters",lambsquarters; [9],70
same,"Plant response rating, Lambsquarters",lambsquarters; [10],80
same,"Plant response rating, Lambsquarters",lambsquarters; [11],80
same,"Plant response rating, Lambsquarters",lambsquarters; [12],85
same,Lambsquarters plant response rating,lambsquarters; [4],80
same,Lambsquarters plant response rating,lambsquarters; [7],90
same,"Plant response rating, Lambsquarters",lambsquarters; [6],90
same,"Plant response rating (scale of 0 to 100), Lambsquarters","lambsquarters; Preemergence, 250 g ai/ha",100
same,"Plant response rating, Pigweed",pigweed; [9],80
same,"Plant response rating, Pigweed",pigweed; [10],80
same,"Plant response rating, Pigweed",pigweed; [11],85
same,"Plant response rating, Pigweed",pigweed; [12],85
same,Pigweed plant response rating,pigweed; [4],85
same,Pigweed plant response rating,pigweed; [7],85
same,"Plant response rating, Pigweed",pigweed; [6],90
same,"Plant response rating (scale of 0 to 100), Pigweed","pigweed; Preemergence, 250 g ai/ha",100
same,"Plant response rating, Velvetleaf",velvetleaf; [9],10
same,"Plant response rating, Velvetleaf",velvetleaf; [10],20
same,"Plant response rating, Velvetleaf",velvetleaf; [11],30
same,"Plant response rating, Velvetleaf",velvetleaf; [12],55
same,Velvetleaf plant response rating,velvetleaf; [4],10
same,Velvetleaf plant response rating,velvetleaf; [7],30
same,"Plant response rating, Velvetleaf",velvetleaf; [6],50
same,"Plant response rating (scale of 0 to 100), Velvetleaf","velvetleaf; Preemergence, 250 g ai/ha",65
